Results on one compound are retold here after ChEMBL document CHEMBL2057148, “Synthesis of a Microcystis aeruginosa predicted metabolite with antimalarial activity” (Bioorg Med Chem Lett, 2012).

The subject of assay [1] is Plasmodium falciparum. The assay is described as follows: Antimalarial activity against chloroquine-resistant Plasmodium falciparum K1 infected in human A-positive type erythrocytes assessed as [3H]hypoxanthine incorporation after 24 hrs by scintillation counting. The class given is functional, organism-based.
The test system of assay [2] is Plasmodium falciparum. Description: Ratio of IC50 for aerucyclamide B to compound IC50 for chloroquine-resistant Plasmodium falciparum K1 infected in human A-positive type erythrocytes assessed as [3H]hypoxanthine incorporation after 24 hrs by scintillation counting. The format is functional.

In the case of `CC[C@H](C)[C@@H]1NC(=O)c2csc(n2)[C@H]([C@@H](C)CC)NC(=O)c2csc(n2)CNC(=O)c2nc1oc2C` [MACROCYCLE], the IC50 in the assay with Plasmodium falciparum [1] came out at 180 nM. Moreover, in the assay on Plasmodium falciparum [2], the “Ratio IC50” value is given as 4.
